Assay results reported in patent publication US8796328B2, “TRPV1 antagonists” (AbbVie Inc., priority 2012, dated 2014).
pIC50: −log10 of the molar value.

How the values were obtained:
rats = assay: Rat tail immersion assay (noxious thermosensation, 55° C. water bath); format: in vivo; conditions: rat, oral 100 μmol/kg, one hour post dosing, relative to vehicle
Method: Compounds were tested for their effects on noxious thermosensation using the tail immersion assay. Testing was performed one hour following oral administration of 100 μmol/kg of the compound in 10% ethanol/20% Tween-80/70% PEG-400 (2 mL/kg). Mophine (6 mg/kg) was administered interperitoneally (i.p.) using saline (2 mL/kg) as the vehicle. For testing, a circulating water bath was heated to 55° C. Thirty to sixty minutes post dosing, the rats were handled for a few seconds to calm them down and then cupped with their back against the testers hand at a slight angle with head facing away from tester. With rat in one hand and a 0.01 second stopwatch in the other hand, the tail was quickly immersed 6-8 cm in water bath or to a distance leaving 2-3 cm of tail out of water. The timer was started simultaneously. When the rat flinched or attempted withdrawal, timer was immediately stopped and the rat's tail was quickly removed from water bath. This response latency (in seconds) was recorded. Process was repeated 3 times with 3-4 minutes between readings for a final average.
For a given example, a percent increase in the average response latency (in seconds) for tail withdrawal relative to a vehicle control was determined % increase=[(tc−tv)/tv]×100%
tc=response time (in seconds) with oral dosing of compounds
tv=response time (in seconds) with oral dosing of vehicle
The % increases in tail withdrawal latency relative to vehicle control are divided into the following categories: […]

[1] = molecular target: T1, human TRPV1 receptor (hTRPV1) (Homo sapiens (Human), UniProt Q8NER1); assay: Acid activation assay (pH 5.0, FLIPR intracellular Ca2+); format: cell-based; conditions: Table 2; 37.5 μM compound; percentage of maximal pH 5.0-induced response
T1 sequence (Q8NER1 whole entry): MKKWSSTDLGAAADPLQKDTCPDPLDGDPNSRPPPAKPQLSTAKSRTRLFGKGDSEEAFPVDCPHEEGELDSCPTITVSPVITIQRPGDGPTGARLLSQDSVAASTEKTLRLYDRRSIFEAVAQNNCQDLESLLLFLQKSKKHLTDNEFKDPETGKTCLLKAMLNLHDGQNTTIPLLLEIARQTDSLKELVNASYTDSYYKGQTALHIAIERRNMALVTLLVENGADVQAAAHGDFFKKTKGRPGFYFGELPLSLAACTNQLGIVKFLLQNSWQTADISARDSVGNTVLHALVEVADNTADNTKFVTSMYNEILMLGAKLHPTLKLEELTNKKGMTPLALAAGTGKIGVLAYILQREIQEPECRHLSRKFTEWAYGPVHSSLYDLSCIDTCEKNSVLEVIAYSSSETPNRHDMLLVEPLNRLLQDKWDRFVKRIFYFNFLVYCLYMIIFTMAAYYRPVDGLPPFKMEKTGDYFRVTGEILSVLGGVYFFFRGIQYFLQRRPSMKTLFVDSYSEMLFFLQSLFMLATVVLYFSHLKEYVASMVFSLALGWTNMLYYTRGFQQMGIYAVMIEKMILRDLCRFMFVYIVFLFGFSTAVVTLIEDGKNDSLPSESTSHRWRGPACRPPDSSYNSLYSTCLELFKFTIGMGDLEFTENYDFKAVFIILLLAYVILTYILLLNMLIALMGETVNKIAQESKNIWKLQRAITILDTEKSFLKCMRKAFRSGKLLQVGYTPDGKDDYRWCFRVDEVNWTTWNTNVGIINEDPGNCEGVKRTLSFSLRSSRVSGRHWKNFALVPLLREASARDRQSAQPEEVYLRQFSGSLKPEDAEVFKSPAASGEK

[2] = molecular target: T1, human TRPV1 receptor (hTRPV1); assay: Capsaicin activation assay (FLIPR intracellular Ca2+); format: cell-based; conditions: Table 2; capsaicin-induced intracellular Ca2+ increase; read-out: human TRPV1 capsaicin IC50
Procedure, shortened: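 Recombinant HEK293 cells stably expressing hTRPV1, Calcium-4 dye loaded 90–120 min at room temperature, were preincubated with compound (12-point, one-third-log) for 3 min before capsaicin challenge. Peak FLIPR fluorescence minus baseline was normalised to capsaicin control response; IC50 from four-parameter logistic fit.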

| Structure (SMILES) | % Increase in Tail Withdrawal Latency (rats) | human TRPV1 H+ (max % remain) [1] [%] | pIC50 [2] |
| --- | --- | --- | --- |
| CC(C)(C)c1ccc(Nc2ncnc3cc(-c4ncccc4C(F)(F)F)ccc23)cc1 [B, reference compound] | +++ (greater than or equal to 25% increase) | 1 | – |
| Cc1cccnc1N1CC=C(C(=O)Nc2ccc(S(=O)(=O)C(F)(F)F)cc2)CC1 [E, reference compound] | +++ (greater than or equal to 25% increase) | 2 | – |
| CC(C)(C)c1ccc2c(c1)CC[C@H]2NC(=O)Nc1cccc2[nH]cnc12 [C, reference compound] | +++ (greater than or equal to 25% increase) | 1 | 7.46 |
| CC(=O)Nc1nc2c(Oc3cc(-c4ccc(C(F)(F)F)cc4)ncn3)cccc2s1 [A, reference compound] | +++ (greater than or equal to 25% increase) | 10 | – |
| Cc1nc(Nc2cccc3c2C[C@H](O)CC3)oc1-c1ccc(C(F)(F)F)cc1 [D, reference compound] | +++ (greater than or equal to 25% increase) | 3 | – |
